In US8008074B2, “Compositions and methods for improving bone mass through modulation of receptors of PTH and fragments thereof” (The UAB Research Foundation, priority 2006, dated 2011):
“Also recorded” adds a separate entry of the source.

What was measured:
Assay type in all cases: cell-based
[1] = tested on: Wnt responsive luciferase reporter (TCF4-Luc); assay: TCF4-Luc luciferase reporter assay in UMR 106 cells; details: for TCF luciferase activity: 5×10^−7 M of indicated PTH ligands for 12 hours
β-catenin = β-catenin stabilization, Western blot of UMR 106 cell fractions; details: UMR 106 cells; for inhibition of PTH-induced β-catenin stabilization: inhibitor 30 minutes before 10^−7 M PTH (1-84) for 1 hour, cytosolic fraction
LRP6/Axin binding = assay: Axin-LRP6 binding immunoprecipitation assay; details: for inhibition of PTH-induced binding of Axin to LRP6: pre-treatment 30 minutes, then PTH (1-84) for 1 hour; for Axin-LRP6 binding: HEK 293 cells cotransfected with LRP6, Axin and GSK3β, ligand for 1 hour
Axin = Axin protein levels; details: cells overexpressing LRP6
Description: Binding of Axin to phosphorylated LRP6 leads to rapid degradation. Then inhibition of Axin/LRP6 binding should […] degradation of Axin. Indeed, Axin degradation is reduced by both inhibitors (data not shown). […] PKA and PKC also were examined to determine whether they regulate PTH-induced PTH1R/LRP6 complex formation. […] Apparently, the receptor complex formation is independent of activation of PKA and PKC. Instead, it seems that activation of G protein-mediated PKA and PKC signaling is in parallel with the recruitment of LRP5/6 in PTH signaling. PKA and PKC activity is required for LRP5/6 phosphorylation and Axin/LRP6 binding.
Wnts induce binding of Axin to phosphorylated LRP6, and the membrane-bound Axin undergoes rapid protein dephosphorylation and degradation, which eventually leads to β-catenin stabilization Willert et al., 1999; Yamamoto et al., 1999).

PTH1R/LRP5/6 complex = target: T1, PTH1R/LRP5/6 complex (Rattus norvegicus, UniProt P25961); assay: Co-immunoprecipitation of endogenous PTH1R with LRP5/6 in UMR-106 cells; details: 5×10^−7 M PTH (1-84)
T1 construct: endogenous in cells; host or cells: UMR-106
T1 sequence (P25961 27-591): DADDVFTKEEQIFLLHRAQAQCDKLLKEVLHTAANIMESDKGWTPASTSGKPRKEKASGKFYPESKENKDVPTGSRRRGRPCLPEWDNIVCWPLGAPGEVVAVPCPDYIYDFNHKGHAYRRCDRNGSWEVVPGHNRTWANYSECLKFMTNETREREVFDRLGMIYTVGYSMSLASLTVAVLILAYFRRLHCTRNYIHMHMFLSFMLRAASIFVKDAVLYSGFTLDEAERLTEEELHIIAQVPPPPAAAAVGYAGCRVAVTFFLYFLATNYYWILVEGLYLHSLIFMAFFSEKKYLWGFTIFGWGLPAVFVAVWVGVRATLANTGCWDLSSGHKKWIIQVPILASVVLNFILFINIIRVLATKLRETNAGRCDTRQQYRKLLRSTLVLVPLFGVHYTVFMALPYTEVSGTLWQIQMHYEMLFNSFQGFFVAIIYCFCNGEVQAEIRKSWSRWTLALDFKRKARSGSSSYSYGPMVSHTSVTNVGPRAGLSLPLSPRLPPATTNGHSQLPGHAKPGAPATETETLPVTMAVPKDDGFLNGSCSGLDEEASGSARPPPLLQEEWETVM
Protocol: Endogenous LRP5 or LRP6 was coimmunoprecipitated with PTH1R in UMR 106 cells. UMR 106 cells were treated with 5×10^−7 M PTH (1-84) for indicated times. […] VSVG-tagged LRP6 was cotransfected into HEK 293 cells with HA-PTH1R, and the cells were treated with 5×10^−7 M PTH (1-84) for 1 hour. The LRP6-associated PTH ligand was determined by Western blotting of the anti-VSVG immunoprecipitates. […] VSVG-tagged LRP6, LRP6N, or LRP6C was cotransfected into HEK 293 cells with HA-PTH1R, and the cells were treated with or without 5×10^−7 M PTH (1-84) for 1 hour. The PTH1R-associated LRP6, LRP6N, or LRP6C was determined by Western blotting of the anti-HA immunoprecipitates, and the LRP6-, LRP6N- or LRP6C-associated PTH1R and PTH ligand was determined by Western blotting with an anti-VSVG antibody. […] The PTH1R-associated LRP6 was determined by Western blotting. […] The effect of LRP-6N on PTH-induced TCF4 activation was determined by luciferase assays.
To determine if PTH (1-84) induced the formation of a complex of endogenous PTH1R with LRP5/6, an immunoprecipitation assay in osteoblastic UMR-106 cells was used. […] The cell lysates isolated from transfected cells treated with or without PTH were subjected to immunoprecipitation with anti-PTH1R antibodies, and the immunocomplex was detected by Western blotting with a monoclonal antibody that recognizes both LRP5 and LRP6. […]

[2] = tested on: TGF-β-induced transcription activity; assay: Smad binding response luciferase reporter (SBE-luc) in 293 cells; details: TGF-β 2 ng/ml, 50 nM
Protocol: A Smad binding response luciferase reporter (SBE-luc) was transfected into 293 cells. TGF-β (2 ng/ml) was added in combination with different doses of PTH (1-34) or cPTH (39-84). Twenty-four hours after transfection, the cells were lysed and the luciferase signal was detected. Luciferase values shown in the figures are representative of transfection experiments performed in triplicate in at least three independent experiments. The relative increased fold of the luciferase activity stimulated by TGF-β in each cell line was calculated.
A Smad binding response luciferase reporter (SBE-luc) was introduced into the multi-cloning site of pcDNA3 (Invitrogen), and the resulting vector was transfected into 293 cells using Lipofectamine Plus reagent (Invitrogen, Cat. No. 10964-013). TGF-β (2 ng/ml) was added in combination with different doses of PTH (1-34) (50 nM) or cPTH (39-84) (50 nM). […] Forty-two hours after transfection, the cells were lysed, and the luciferase signal was detected using the Dual Luciferase assay kit (Promega) according to the manufacturer's instructions.
Luciferase values shown in the figures are representative of transfection experiments performed in triplicate in at least three independent experiments. The relative increased fold of the luciferase activity stimulated by TGF-β in each cell line was calculated.

| Compound | inhibition of PTH-stimulated TCF4-luciferase reporter activity [1] | inhibition of PTH-induced β-catenin stabilization (β-catenin) | inhibition of PTH-induced binding of Axin to LRP6 (LRP6/Axin binding) | Axin-LRP6 binding (LRP6/Axin binding) | Axin protein levels (Axin) | TCF luciferase activity [1] | other results |
| --- | --- | --- | --- | --- | --- | --- | --- |
| O=S(=O)(NCCNC/C=C/c1ccc(Br)cc1)c1cccc2cnccc12 [H89] | inhibited activity from a TCF4-luciferase reporter | inhibit PTH-induced β-catenin stabilization | inhibit the binding of Axin with LRP6 |  |  |  |  |
| Calphostin C | inhibited activity from a TCF4-luciferase reporter | less effective; also recorded: inhibit PTH-induced β-catenin stabilization | much weaker; also recorded: inhibit the binding of Axin with LRP6 |  |  |  |  |
| PTH 79-84: C-terminal PTH ligand as printed; possibly misprint of 39-84 (TKAKSQ; Parathyroid hormone; UniProt P01270 110-115, looked up, fragment) |  |  |  | did not | did not affect Axin level |  |  |
| PTH (1-84): Full-length PTH or PTH ligand, 84 amino acids long, represented as 1-84 |  |  |  | induces LRP6/Axin binding | further downregulated Axin protein levels | significantly elevated | activation of TCF4-Luc reporter ([1]; 10^−7M PTH (1-84), 12 hours): activates the Wnt signaling pathway; β-catenin levels in cytosolic and nuclear fractions (β-catenin; 5×10^−7 M PTH (1-84), 30 minutes): stimulated the levels of β-catenin in both the cytoplasm and the nucleus; interaction between endogenous LRP5/6 and PTH1R (PTH1R/LRP5/6 complex): induced the interaction between endogenous LRP5/6 and PTH1R in a time dependent manner; time of peak of PTH-induced LRP5/6-PTH1R interaction (PTH1R/LRP5/6 complex): 1 h; Axin-LRP6 binding (LRP6/Axin binding; listed as PTH1-84): stimulated Axin-LRP6 binding |
| PTHrP 1-40: PTHrP fragment 1-40 tested beside PTH ligands |  |  |  | stimulated Axin-LRP6 binding | further downregulated Axin protein levels | significantly elevated |  |
| cPTH (39-84): C-terminal fragment of PTH, amino acids 39-84 (APLAPRDAGSQRPRKKEDNVLVESHEKSLGEADKADVNVLTKAKSQ; Parathyroid hormone; UniProt P01270 70-115, looked up, fragment) |  |  |  |  |  | only a marginal increase | effect on TGF-β-induced transcription activity (SBE-luc) [2]: inhibited TGF-β-induced transcription activity |
